Where two headings read alike, the source gives them in different places.
Columns and labels:
[1] = system: U87 cells (human glioblastoma cell line); conditions: U-87 cells; previously determined (Blum et al., Cancer Research 2005); read-out: IC50 of growth inhibition; cited from earlier work
[2] = system: Panc-1 cells (human pancreatic carcinoma cell line); conditions: previously determined (Weisz et al., Oncogene 1999), read-out: IC50 of growth inhibition; cited from earlier work
[3] = system: U87 cells (human glioblastoma cell line); experiment: Inhibition of U87 cell growth (cell counting); format: cell-based; conditions: U-87 cells
Method: (§1) Human glioblastoma U87 cells were obtained from American Tissue Culture Collection (ATCC) and grown in Dulbecco's modified Eagle medium (DMDM) containing 10% fetal calf serum, 2 mM L-glutamine, 100 U/mL penicillin, and 100 μg/mL streptomycin. The cells were incubated at 37° C. in a humidified atmosphere of 95% air and 5% CO2. Cells were plated in 24-well plates at a density of 5000 cells per well and grown for 24 hours. The medium was then replaced by a medium containing the desired concentration of methoxymethyl S-farnesylthiosalicylic acid and 0.1% DMSO, or by a medium containing 0.1% DMSO (control). Cells were maintained in culture for 5-7 days and then counted. Data are expressed as a percentage: (number cells in drug treated culture/number cells in control×100). Experiment was performed twice in quadruplicates and means±SD are represented graphically in FIG. 2.
(§2) To establish efficacy of the newly synthesized compound FTS-MOME, Applicants prepared cell growth assays using human cancer cell lines. […]
Next, to examine the effects of FTS-MOME on U-87 cell growth (i.e., growth inhibition), the cells were incubated with and without FTS-MOME for five (5) days and the live cells were counted as a percentage of control over concentration of FTS-MOME (μM). […]

[4] = system: Panc-1 cells (human pancreatic carcinoma cell line); experiment: Inhibition of Panc-1 cell growth (cell counting); format: cell-based
Method: as §1, with “Human pancreatic cancer Panc-1” for “Human glioblastoma U87”, “in drug-treated” for “in drug treated”, “in control culture×100). Experiments were” for “in control×100). Experiment was”, “FIG. 1.” for “FIG. 2.”
as §2
First, to examine the effects of FTS-MOME on panc-1 cell growth (i.e., growth inhibition), the cells were incubated with and without FTS-MOME for five (5) days and the live cells were counted as a percentage of control over concentration of FTS-MOME (μM). […]

[5] = concentration range of 6-100 μM, five days

| Structure (SMILES) | IC50 [1] [µM] | IC50 [2] [µM] | IC50 ([3]; Homo sapiens, U-87 MG, 120 h, incubated five days, live cells counted as percentage of control, read-out: IC50 (concentration causing 50% inhibition of cell growth)) [µM] | live cancer cell number [3, 5] | IC50 ([4]; Homo sapiens, 120 h, incubated five days, live cells counted as percentage of control, read-out: IC50 (concentration causing 50% inhibition of cell growth)) [µM] | live cancer cell number [4, 5] |
| --- | --- | --- | --- | --- | --- | --- |
| CC(C)=CCC/C(C)=C/CC/C(C)=C/CSc1ccccc1C(=O)O [FTS, S-trans, trans-farnesylthiosalicylic acid] | 50 | 35 | – | – | – | – |
| COCOC(=O)c1ccccc1SC/C=C(\C)CC/C=C(\C)CCC=C(C)C [FTS-MOME, methoxymethyl S-farnesylthiosalicylate] | – | – | 15 | dose-dependent decrease | 15 | dose-dependent decrease |

Source: patent US8338481B2, “Alkoxyalkyl S-prenylthiosalicylates for treatment of cancer” (Ramot at Tel-Aviv University Ltd., priority 2009, dated 2012)
